Experimental data published in PubChem BioAssay AID1963977 (Molecular Pharmacology Branch, DTP, NCI, 2024).

System: 624824-186-R-J3-PDC multicell spheroids, viability
Test: Anticancer human tumor 624824-186-R-J3-PDC patient-derived colon adenocarcinoma cell line growth inhibition [PI3K]
Conditions: for IC50: curve of first compound; for viability, T/C: stronger effect = lower value; active means viability on the fitted dose curve at most 10% of control; inactive means the rest
How it was run: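 Multi-cell spheroids combine tumor cells with HUVEC and human MSCs, treated with targeted agents alone or with inavolisib, alpelisib, duvelisib or copanlisib. Concentrations fall in half-log steps from at or near clinical Cmax, or from 10 microM where Cmax is unknown; viability read-out.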

[1] = second compound 0.00316 µM, first compound 0.0316 µM
[2] = second compound 0.00316 µM, first compound 0.1 µM
[3] = second compound 0.00316 µM, first compound 0.316 µM
[4] = second compound 0.00316 µM, first compound 1 µM
[5] = second compound 0.00316 µM, first compound 3.16 µM
[6] = second compound 0.00316 µM, first compound 10 µM
[7] = second compound 0.01 µM, first compound 0.0316 µM
[8] = second compound 0.01 µM, first compound 0.1 µM
[9] = second compound 0.01 µM, first compound 0.316 µM
[10] = second compound 0.01 µM, first compound 1 µM
[11] = second compound 0.01 µM, first compound 3.16 µM
[12] = second compound 0.01 µM, first compound 10 µM
[13] = second compound 0.0316 µM, first compound 0.0316 µM
[14] = second compound 0.0316 µM, first compound 0.1 µM
[15] = second compound 0.0316 µM, first compound 0.316 µM
[16] = second compound 0.0316 µM, first compound 1 µM
[17] = second compound 0.0316 µM, first compound 3.16 µM
[18] = second compound 0.0316 µM, first compound 10 µM
[19] = second compound 0.1 µM, first compound 0.0316 µM
[20] = second compound 0.1 µM, first compound 0.1 µM
[21] = second compound 0.1 µM, first compound 0.316 µM
[22] = second compound 0.1 µM, first compound 1 µM
[23] = second compound 0.1 µM, first compound 3.16 µM
[24] = second compound 0.1 µM, first compound 10 µM
[25] = second compound 0.316 µM, first compound 0.0316 µM
[26] = second compound 0.316 µM, first compound 0.1 µM
[27] = second compound 0.316 µM, first compound 0.316 µM
[28] = second compound 0.316 µM, first compound 1 µM
[29] = second compound 0.316 µM, first compound 3.16 µM
[30] = second compound 0.316 µM, first compound 10 µM
[31] = second compound 1 µM, first compound 0.0316 µM
[32] = second compound 1 µM, first compound 0.1 µM
[33] = second compound 1 µM, first compound 0.316 µM
[34] = second compound 1 µM, first compound 1 µM
[35] = second compound 1 µM, first compound 3.16 µM
[36] = second compound 1 µM, first compound 10 µM
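Further: spheroids exposed to agents for seven days before luminescence read.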
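Wherever viability, T/C is given: luminescent signal used as a stand-in for spheroid viability; percent viability relative to DMSO vehicle control wells taken as 100%.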

CNC(=O)c1ccc(N2C(=S)N(c3ccc(C#N)c(C(F)(F)F)c3)C(=O)C2(C)C)cc1F + COc1c(OCCCN2CCOCC2)ccc2c3n(c(=NC(=O)c4cnc(N)nc4)nc12)CCN3
< 0.0316 µM: IC50 (second compound 0.316 µM) | IC50 (second compound 1 µM)
inactive: viability, T/C [1] 116% | viability, T/C [2] 92.3% | viability, T/C [3] 114% | viability, T/C [4] 103% | viability, T/C [5] 105% | viability, T/C [6] 107% | viability, T/C [7] 102% | viability, T/C [8] 94.5% | viability, T/C [9] 101% | viability, T/C [10] 94% | viability, T/C [11] 104% | viability, T/C [12] 98% | viability, T/C [13] 91.1% | viability, T/C [14] 102% | viability, T/C [15] 91.2% | viability, T/C [16] 93.2% | viability, T/C [17] 88.9% | viability, T/C [18] 88.8% | viability, T/C [19] 78% | viability, T/C [20] 74.5% | viability, T/C [21] 89.4% | viability, T/C [22] 71.8% | viability, T/C [23] 73% | viability, T/C [24] 72.5% | viability, T/C [25] 49.2% | viability, T/C [26] 50.8% | viability, T/C [27] 47.5% | viability, T/C [28] 48.5% | viability, T/C [29] 47.6% | viability, T/C [30] 34.1% | viability, T/C [31] 26.7% | viability, T/C [32] 31% | viability, T/C [33] 26.7% | viability, T/C [34] 27.5% | viability, T/C [35] 26.2% | viability, T/C [36] 23.9%
> 10 µM: IC50 (second compound 0.00316 µM) | IC50 (second compound 0.01 µM) | IC50 (second compound 0.0316 µM) | IC50 (second compound 0.1 µM)

C=CC(=O)N1CCN(c2nc(=O)n(-c3c(C)ccnc3C(C)C)c3nc(-c4c(O)cccc4F)c(F)cc23)C(C)C1 (stereo unspecified) + COc1c(OCCCN2CCOCC2)ccc2c3n(c(=NC(=O)c4cnc(N)nc4)nc12)CCN3
< 0.0316 µM: IC50 (second compound 1 µM)
inactive: viability, T/C [1] 119% | viability, T/C [2] 100% | viability, T/C [3] 112% | viability, T/C [4] 97% | viability, T/C [5] 100% | viability, T/C [6] 99.1% | viability, T/C [7] 93.1% | viability, T/C [8] 96.6% | viability, T/C [9] 104% | viability, T/C [10] 108% | viability, T/C [11] 97.7% | viability, T/C [12] 98.8% | viability, T/C [13] 99.8% | viability, T/C [14] 101% | viability, T/C [15] 92.9% | viability, T/C [16] 99% | viability, T/C [17] 89.7% | viability, T/C [18] 92.7% | viability, T/C [19] 78.1% | viability, T/C [20] 79.3% | viability, T/C [21] 78.7% | viability, T/C [22] 80.6% | viability, T/C [23] 80.2% | viability, T/C [24] 72.7% | viability, T/C [25] 48.7% | viability, T/C [26] 53.1% | viability, T/C [27] 53.2% | viability, T/C [28] 46.7% | viability, T/C [29] 51.8% | viability, T/C [30] 41.2% | viability, T/C [31] 28.9% | viability, T/C [32] 30.5% | viability, T/C [33] 29% | viability, T/C [34] 25.6% | viability, T/C [35] 26.3% | viability, T/C [36] 33.9%
3.43 µM: IC50 (second compound 0.316 µM)
> 10 µM: IC50 (second compound 0.00316 µM) | IC50 (second compound 0.01 µM) | IC50 (second compound 0.0316 µM) | IC50 (second compound 0.1 µM)

Cn1cnc2c(F)c(Nc3ccc(Br)cc3Cl)c(C(=O)NOCCO)cc21 + COc1c(OCCCN2CCOCC2)ccc2c3n(c(=NC(=O)c4cnc(N)nc4)nc12)CCN3
0.189 µM: IC50 (second compound 0.0316 µM)
inactive: viability, T/C (second compound 0.00316 µM, first compound 0.00949 µM) 102% | viability, T/C (second compound 0.00316 µM, first compound 0.03 µM) 95.9% | viability, T/C (second compound 0.00316 µM, first compound 0.0949 µM) 102% | viability, T/C (second compound 0.00316 µM, first compound 0.3 µM) 87.8% | viability, T/C (second compound 0.00316 µM, first compound 0.949 µM) 46.3% | viability, T/C (second compound 0.00316 µM, first compound 3 µM) 31.4% | viability, T/C (second compound 0.01 µM, first compound 0.00949 µM) 108% | viability, T/C (second compound 0.01 µM, first compound 0.03 µM) 88.4% | viability, T/C (second compound 0.01 µM, first compound 0.0949 µM) 86.4% | viability, T/C (second compound 0.01 µM, first compound 0.3 µM) 65.5% | viability, T/C (second compound 0.01 µM, first compound 0.949 µM) 37.1% | viability, T/C (second compound 0.01 µM, first compound 3 µM) 18.4% | viability, T/C (second compound 0.0316 µM, first compound 0.00949 µM) 88.9% | viability, T/C (second compound 0.0316 µM, first compound 0.03 µM) 89.6% | viability, T/C (second compound 0.0316 µM, first compound 0.0949 µM) 67.4% | viability, T/C (second compound 0.0316 µM, first compound 0.3 µM) 37.7% | viability, T/C (second compound 0.0316 µM, first compound 0.949 µM) 18.2% | viability, T/C (second compound 0.0316 µM, first compound 3 µM) 11.2% | viability, T/C (second compound 0.1 µM, first compound 0.00949 µM) 75.2% | viability, T/C (second compound 0.1 µM, first compound 0.03 µM) 57.9% | viability, T/C (second compound 0.1 µM, first compound 0.0949 µM) 38.5% | viability, T/C (second compound 0.1 µM, first compound 0.3 µM) 21% | viability, T/C (second compound 0.1 µM, first compound 0.949 µM) 13.5% | viability, T/C (second compound 0.316 µM, first compound 0.00949 µM) 43.3% | viability, T/C (second compound 0.316 µM, first compound 0.03 µM) 28.9% | viability, T/C (second compound 0.316 µM, first compound 0.0949 µM) 17.9% | viability, T/C (second compound 1 µM, first compound 0.00949 µM) 22.7% | viability, T/C (second compound 1 µM, first compound 0.03 µM) 16% | viability, T/C (second compound 1 µM, first compound 0.0949 µM) 10.1%
0.854 µM: IC50 (second compound 0.00316 µM)
< 0.00949 µM: IC50 (second compound 0.316 µM) | IC50 (second compound 1 µM)
0.582 µM: IC50 (second compound 0.01 µM)
active: viability, T/C (second compound 0.1 µM, first compound 3 µM) 5.3% | viability, T/C (second compound 0.316 µM, first compound 0.3 µM) 9.77% | viability, T/C (second compound 0.316 µM, first compound 0.949 µM) 4.7% | viability, T/C (second compound 0.316 µM, first compound 3 µM) 1.14% | viability, T/C (second compound 1 µM, first compound 0.3 µM) 8.08% | viability, T/C (second compound 1 µM, first compound 0.949 µM) 3.21% | viability, T/C (second compound 1 µM, first compound 3 µM) 1.3%
0.0474 µM: IC50 (second compound 0.1 µM)
